A short description of data set [1]: Solubility of Compound B in soy oil, estimated visually. The class given is physicochemical. The conditions noted are these: oil or lipid, thermodynamic from solid; visual estimate by gradual addition of soy oil. Here is the method: The solubility of Compound B in soy oil was initially estimated visually by gradual addition of soy oil to a weighed amount of the drug substance until the oil was almost clear (visually). An estimate of the drug substance in oil was calculated from the total amount of oil added.

The conditions of data set [2]: generally known; cited from earlier work.

By solubility is commonly meant the dissolved amount per volume that the medium holds.

For `Cn1c2ccc(F)cc2c2c(C(=O)N3CCCC3)cn(-c3ccccc3)c(=O)c21` [Compound B, 6-Fluoro-9-methyl-2-phenyl-4-(pyrrolidin-1-ylcarbonyl)-2,9-dihydro-1H-pyrido[3,4-b]indol-1-one], in data set [1], the solubility was less than 1000 µg/mL. In the case of `CCCCc1oc2ccc(C(=O)OC(C)C)cc2c1C(=O)c1ccc(CCCN(CCCC)CCCC)cc1.O=C(O)/C=C/C(=O)O` [Compound C, Isopropyl 2-butyl-3-[4-[3-(dibutylamino)propyl]benzoyl]-1-benzofuran-5-carboxylate fumarate], the solubility in oils result in data set [2] is “low solubility”.

The values above are taken from patent US20080038359A1, “Stable Nanoparticle Formulations” (SANOFI-AVENTIS U.S. LLC, priority 2005, published 2008).
